Results on 29 compounds are retold here after paper PMC9027111, “Morphing Natural Product Platensimycin via Heck, Sonogashira, and One-Pot Sonogashira/Cycloaddition Reactions to Produce Antibiotics with In Vivo Activity” (Antibiotics, 2022).

Converted amounts (≈) assume the structure as drawn.

The test system of one assay is S. aureus ATCC 29213. Nature of the assay: MIC determination (LB agar dilution), S. aureus ATCC 29213. The following applies: Staphylococcus aureus, ATCC29213, at least two replicates. Type of assay: cell-based. Here is the method: (§1) All of the tested compounds were prepared to different concentrations with methanol, and 150 μL of the respective methanol solution was used to mix with 15 mL LB (Luria–Bertani) medium with 1% agar in each Petri dish. Linezolid and PTM were used as reference compounds for comparison. In vitro bioassay for compounds was carried out using clinical strains of S. aureus, E. coli, and Klebsilla pneumoniae. The bacteria were cultivated in LB medium and incubated for 16 h at 37 °C, 250 rpm. The resulting bacteria were diluted to approximate 0.25 at OD600, which were further diluted 10_4-fold. The diluted bacteria (2 μL) were added to Petri dish containing the respective compounds. The resulting Petri dishes were incubated for 16 h at 37 °C. The determination of MIC is the concentration of Petri dishes with no visible growth of bacteria.
(In general: Agar dilution tests growth on a series of plates holding different concentrations.)

For the next assay, the system named is MSSA 1. Nature of the assay: MIC determination (LB agar dilution), clinical MSSA strain 1. Type of assay: cell-based. The following applies: Staphylococcus aureus, at least two replicates. On the procedure: as §1
For the next assay, the system named is MSSA 2. Nature of the assay: MIC determination (LB agar dilution), clinical MSSA strain 2. Type of assay: cell-based. The following applies: Staphylococcus aureus, at least two replicates. Here is the method:
as §1

In the next assay the test system is MRSA 3. Nature of the assay: MIC determination (LB agar dilution), clinical MRSA strain 3. Type of assay: cell-based. As to conditions: Staphylococcus aureus, at least two replicates. Here is the method: as §1
For another assay, the system named is MRSA 4. Nature of the assay: MIC determination (LB agar dilution), clinical MRSA strain 4. Type of assay: cell-based. The following applies: Staphylococcus aureus, at least two replicates. Here is the method: as §1
In another assay the test system is MRSA. Type of assay: in vivo. As to conditions: 50 mg/kg intraperitoneal at 1 h and 5 h after infection, tracked 7 days, n = 5.

In general, MIC refers to the smallest concentration in the dilution series that meets the test's criterion for growth inhibition. Read a low MIC as a more susceptible organism. On to `COC(=O)C=CC1=CC23CC4CC(OC4(C)C2)C3C(C)(CCC(=O)Nc2c(O)ccc(C(=O)O)c2O)C1=O` (stereo not drawn) [A1], for which the MIC with S. aureus ATCC 29213, with MSSA 1, with MSSA 2, against MRSA 3 and in the assay with MRSA 4 was 2 µg/mL (≈ 3.81 µM) in each case.
Turning to `CC12CC34C=C(C=CC(=O)OCCO)C(=O)C(C)(CCC(=O)Nc5c(O)ccc(C(=O)O)c5O)C3C(CC1C4)O2` (stereo not drawn) [A2], the minimum inhibitory concentration (MIC) in the assay on S. aureus ATCC 29213, against MSSA 1, in the assay with MSSA 2, in the assay with MRSA 3 and against MRSA 4 was 16 µg/mL (≈ 28.8 µM) throughout.
As for `CCCCOC(=O)C=CC1=CC23CC4CC(OC4(C)C2)C3C(C)(CCC(=O)Nc2c(O)ccc(C(=O)O)c2O)C1=O` (stereo not drawn) [A3], the MIC against S. aureus ATCC 29213, against MSSA 1, against MSSA 2, against MRSA 3 and in the assay with MRSA 4 was 1 µg/mL (≈ 1.76 µM) each time.
For the compound `CC12CC34C=C(C=CC(N)=O)C(=O)C(C)(CCC(=O)Nc5c(O)ccc(C(=O)O)c5O)C3C(CC1C4)O2` (stereo not drawn) [A6], the MIC against S. aureus ATCC 29213, in the assay with MSSA 1, in the assay on MSSA 2, with MRSA 3 and in the assay with MRSA 4 was 64 µg/mL (≈ 125 µM) each time.
As for `CN(C)C(=O)C=CC1=CC23CC4CC(OC4(C)C2)C3C(C)(CCC(=O)Nc2c(O)ccc(C(=O)O)c2O)C1=O` (stereo not drawn) [A7], the MIC against S. aureus ATCC 29213, against MSSA 1, with MSSA 2, in the assay with MRSA 3 and against MRSA 4 was 16 µg/mL (≈ 29.7 µM) throughout.
Turning to `CC(C)NC(=O)C=CC1=CC23CC4CC(OC4(C)C2)C3C(C)(CCC(=O)Nc2c(O)ccc(C(=O)O)c2O)C1=O` (stereo not drawn) [A8], the MIC in the assay with S. aureus ATCC 29213, against MSSA 1, against MSSA 2, in the assay on MRSA 3 and in the assay with MRSA 4 was 32 µg/mL (≈ 57.9 µM) each time.
With `CC(C)(C)NC(=O)C=CC1=CC23CC4CC(OC4(C)C2)C3C(C)(CCC(=O)Nc2c(O)ccc(C(=O)O)c2O)C1=O` (stereo not drawn) [A9], the MIC in the assay with S. aureus ATCC 29213, against MSSA 1, with MSSA 2, in the assay with MRSA 3 and against MRSA 4 was 8 µg/mL (≈ 14.1 µM) in each case.
On to `C#CC1=CC23CC4CC(OC4(C)C2)C3C(C)(CCC(=O)Nc2c(O)ccc(C(=O)O)c2O)C1=O` (stereo not drawn) [B1], for which the MIC in the assay with S. aureus ATCC 29213, in the assay with MSSA 1, in the assay on MSSA 2, in the assay on MRSA 3 and in the assay with MRSA 4 was 8 µg/mL (≈ 17.2 µM) throughout.
For `CCCCC#CC1=CC23CC4CC(OC4(C)C2)C3C(C)(CCC(=O)Nc2c(O)ccc(C(=O)O)c2O)C1=O` (stereo not drawn) [B2], the MIC in the assay on S. aureus ATCC 29213, in the assay with MSSA 1, in the assay with MSSA 2, against MRSA 3 and with MRSA 4 was 1 µg/mL (≈ 1.92 µM) in each case.
In the case of `CC(C)(C)C#CC1=CC23CC4CC(OC4(C)C2)C3C(C)(CCC(=O)Nc2c(O)ccc(C(=O)O)c2O)C1=O` (stereo not drawn) [B3], the MIC against S. aureus ATCC 29213, in the assay on MSSA 1, against MSSA 2, with MRSA 3 and against MRSA 4 was 1 µg/mL (≈ 1.92 µM) in each case.
Consider `CC12CC34C=C(C#CC5CC5)C(=O)C(C)(CCC(=O)Nc5c(O)ccc(C(=O)O)c5O)C3C(CC1C4)O2` (stereo not drawn) [B4], for which the MIC against S. aureus ATCC 29213, in the assay on MSSA 1, in the assay with MSSA 2, against MRSA 3 and against MRSA 4 was 1 µg/mL (≈ 1.98 µM) in each case.
Take `CCCCCC#CC1=CC23CC4CC(OC4(C)C2)C3C(C)(CCC(=O)Nc2c(O)ccc(C(=O)O)c2O)C1=O` (stereo not drawn) [B5]: the MIC against S. aureus ATCC 29213, in the assay on MSSA 1, in the assay with MSSA 2, against MRSA 3 and in the assay with MRSA 4 was 1 µg/mL (≈ 1.87 µM) in each case.
Take `CC12CC34C=C(C#CC5(O)CCCCC5)C(=O)C(C)(CCC(=O)Nc5c(O)ccc(C(=O)O)c5O)C3C(CC1C4)O2` (stereo not drawn) [B6]: the MIC with S. aureus ATCC 29213, in the assay on MSSA 1, in the assay on MSSA 2, in the assay with MRSA 3 and in the assay on MRSA 4 was 4 µg/mL (≈ 7.1 µM) throughout.
Regarding `CC12CC34C=C(C#Cc5ccccc5)C(=O)C(C)(CCC(=O)Nc5c(O)ccc(C(=O)O)c5O)C3C(CC1C4)O2` (stereo not drawn) [B7], the MIC against S. aureus ATCC 29213, in the assay with MSSA 1, in the assay with MSSA 2, with MRSA 3 and against MRSA 4 was 1 µg/mL (≈ 1.85 µM) each time.
As for `CC12CC34C=C(C#Cc5cccc(N)c5)C(=O)C(C)(CCC(=O)Nc5c(O)ccc(C(=O)O)c5O)C3C(CC1C4)O2` (stereo not drawn) [B9], the MIC against S. aureus ATCC 29213, in the assay with MSSA 1, against MSSA 2, against MRSA 3 and in the assay on MRSA 4 was 1 µg/mL (≈ 1.8 µM) throughout.
Consider `Cc1ccc(C#CC2=CC34CC5CC(OC5(C)C3)C4C(C)(CCC(=O)Nc3c(O)ccc(C(=O)O)c3O)C2=O)cc1` (stereo not drawn) [B10], for which the MIC against S. aureus ATCC 29213 came out at 8 µg/mL (≈ 14.4 µM); in the assay with MSSA 1, 4 µg/mL (≈ 7.2 µM); in the assay with MSSA 2 it was 4 µg/mL (≈ 7.2 µM); in the assay on MRSA 3 it was 8 µg/mL (≈ 14.4 µM); with MRSA 4 it was 4 µg/mL (≈ 7.2 µM).
`CCc1ccc(C#CC2=CC34CC5CC(OC5(C)C3)C4C(C)(CCC(=O)Nc3c(O)ccc(C(=O)O)c3O)C2=O)cc1` (stereo not drawn) [B11]: the MIC against S. aureus ATCC 29213, with MSSA 1, in the assay with MSSA 2, against MRSA 3 and in the assay with MRSA 4 was 1 µg/mL (≈ 1.76 µM) throughout.
With `CCCCc1ccc(C#CC2=CC34CC5CC(OC5(C)C3)C4C(C)(CCC(=O)Nc3c(O)ccc(C(=O)O)c3O)C2=O)cc1` (stereo not drawn) [B12], the MIC in the assay with S. aureus ATCC 29213, with MSSA 1, with MSSA 2, in the assay with MRSA 3 and in the assay with MRSA 4 was 8 µg/mL (≈ 13.4 µM) throughout.
For `COc1ccc(C#CC2=CC34CC5CC(OC5(C)C3)C4C(C)(CCC(=O)Nc3c(O)ccc(C(=O)O)c3O)C2=O)cc1` (stereo not drawn) [B13], the MIC in the assay with S. aureus ATCC 29213, against MSSA 1, against MSSA 2, against MRSA 3 and in the assay on MRSA 4 was 1 µg/mL (≈ 1.75 µM) each time.
With `CC12CC34C=C(C#Cc5ccc(F)cc5)C(=O)C(C)(CCC(=O)Nc5c(O)ccc(C(=O)O)c5O)C3C(CC1C4)O2` (stereo not drawn) [B14], the MIC in the assay on S. aureus ATCC 29213, in the assay on MSSA 1, against MSSA 2, against MRSA 3 and in the assay on MRSA 4 was 1 µg/mL (≈ 1.79 µM) each time.
As for `CC12CC34C=C(C#Cc5ccc(Cl)cc5)C(=O)C(C)(CCC(=O)Nc5c(O)ccc(C(=O)O)c5O)C3C(CC1C4)O2` (stereo not drawn) [B15], the MIC with S. aureus ATCC 29213, in the assay on MSSA 1, with MSSA 2, against MRSA 3 and against MRSA 4 was 1 µg/mL (≈ 1.74 µM) each time.
`CC(=O)C1=C(C)OC(Cc2ccccc2)=C2C(=O)C(C)(CCC(=O)Nc3c(O)ccc(C(=O)O)c3O)C3C4CC5CC3(CC5(C)O4)C12` (stereo not drawn) [C1]: the MIC against S. aureus ATCC 29213, with MSSA 1, against MSSA 2, in the assay on MRSA 3 and in the assay with MRSA 4 was 16 µg/mL (≈ 24.9 µM) each time.
Turning to `CC(=O)C1=C(C)OC(Cc2ccc(C)cc2)=C2C(=O)C(C)(CCC(=O)Nc3c(O)ccc(C(=O)O)c3O)C3C4CC5CC3(CC5(C)O4)C12` (stereo not drawn) [C2], the MIC against S. aureus ATCC 29213, in the assay on MSSA 1, against MSSA 2, in the assay on MRSA 3 and in the assay with MRSA 4 was 16 µg/mL (≈ 24.4 µM) each time.
Consider `CCc1ccc(CC2=C3C(=O)C(C)(CCC(=O)Nc4c(O)ccc(C(=O)O)c4O)C4C5CC6CC4(CC6(C)O5)C3C(C(C)=O)=C(C)O2)cc1` (stereo not drawn) [C3], for which the MIC in the assay with S. aureus ATCC 29213, in the assay with MSSA 1, in the assay on MSSA 2, in the assay on MRSA 3 and with MRSA 4 was 32 µg/mL (≈ 47.8 µM) each time.
For the compound `CCCCc1ccc(CC2=C3C(=O)C(C)(CCC(=O)Nc4c(O)ccc(C(=O)O)c4O)C4C5CC6CC4(CC6(C)O5)C3C(C(C)=O)=C(C)O2)cc1` (stereo not drawn) [C4], the MIC against S. aureus ATCC 29213, against MSSA 1, in the assay with MSSA 2, in the assay with MRSA 3 and against MRSA 4 was 32 µg/mL (≈ 45.9 µM) in each case.
With `CC(=O)C1=C(C)OC(Cc2cccc(F)c2)=C2C(=O)C(C)(CCC(=O)Nc3c(O)ccc(C(=O)O)c3O)C3C4CC5CC3(CC5(C)O4)C12` (stereo not drawn) [C5], the MIC with S. aureus ATCC 29213, against MSSA 1, against MSSA 2, against MRSA 3 and in the assay with MRSA 4 was 16 µg/mL (≈ 24.3 µM) in each case.
Take `CC(=O)C1=C(C)OC(Cc2ccc(Cl)cc2)=C2C(=O)C(C)(CCC(=O)Nc3c(O)ccc(C(=O)O)c3O)C3C4CC5CC3(CC5(C)O4)C12` (stereo not drawn) [C7]: the MIC in the assay with S. aureus ATCC 29213, against MSSA 1, against MSSA 2, in the assay on MRSA 3 and against MRSA 4 was 32 µg/mL (≈ 47.3 µM) each time.
Turning to `CC(=O)NC[C@H]1CN(c2ccc(N3CCOCC3)c(F)c2)C(=O)O1` [Linezolid, reference compound], the MIC in the assay on S. aureus ATCC 29213, in the assay on MSSA 1, in the assay with MSSA 2, with MRSA 3 and in the assay on MRSA 4 was 1 µg/mL (≈ 2.96 µM) each time.
In the case of `CN[C@H](CC(C)C)C(=O)N[C@H]1C(=O)N[C@@H](CC(N)=O)C(=O)N[C@H]2C(=O)N[C@H]3C(=O)N[C@H](C(=O)N[C@H](C(=O)O)c4cc(O)cc(O)c4-c4cc3ccc4O)[C@H](O)c3ccc(c(Cl)c3)Oc3cc2cc(c3O[C@@H]2O[C@H](CO)[C@@H](O)[C@H](O)[C@H]2O[C@H]2C[C@](C)(N)[C@H](O)[C@H](C)O2)Oc2ccc(cc2Cl)[C@H]1O` [vancomycin, reference compound], the “survival of infected mice” value in the assay on MRSA is reported as 100%.
